The target of this test is Complement factor D (Homo sapiens, UniProt P00746). Kind of test: Factor D Assay: Human Factor D (purified from human serum, Complement Technology, Inc.) at 80 nM final concentration is incubated with test compound at various concentrations for 5 min at room temperature in 50 mM Tris, 1M NaCl, pH 7.5. A synthetic substrate Z-L-Lys-SBz and DTNB (Ellman's reagent) are added to final concentrations of 100 μM each. Absorbance at 405 nm (A405) is recorded at 30 second intervals for 30 min using a microplate spectrophotometer. IC50 values are calculated by nonlinear regression of complement Factor D reaction rates as a function of test compound concentration.
Chain of Complement factor D (P00746 whole entry): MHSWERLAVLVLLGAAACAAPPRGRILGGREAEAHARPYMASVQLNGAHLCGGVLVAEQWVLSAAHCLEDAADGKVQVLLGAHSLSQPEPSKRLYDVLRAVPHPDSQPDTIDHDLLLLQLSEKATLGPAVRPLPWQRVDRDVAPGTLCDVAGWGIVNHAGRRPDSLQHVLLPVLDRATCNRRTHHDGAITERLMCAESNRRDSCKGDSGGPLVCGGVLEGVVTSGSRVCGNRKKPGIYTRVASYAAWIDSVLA

Turning to `CC(=O)c1nn(CC(=O)N2[C@H](C(=O)Nc3nc(Br)ccc3C)C[C@@]3(CN4CC(O)C4)C[C@@H]23)c2c(C)cc(-c3cnc(C)nc3)cc12`, the IC50 (commonly the concentration needed to halve the response being measured) is less than 1000 nM.
The figure for `CC(=O)c1nn(CC(=O)N2[C@H](C(=O)NCc3ncccn3)C[C@@]3(C)C[C@@H]23)c2c(C)cc(-c3cnc(C)nc3)cc12` is less than 1000 nM; for `CC(=O)c1nn(CC(=O)N2[C@H](C(=O)Nc3cccc(Br)n3)C[C@@]3(C)C[C@@H]23)c2c(C)cc(-c3cnc(C)nc3)cc12` it is less than 1000 nM.
In the case of `CC(=O)c1nn(CC(=O)N2[C@H](C(=O)N[C@H](C)[C@H]3CC3(Cl)Cl)C[C@@]3(C)C[C@@H]23)c2c(C)cc(-c3cnc(C)nc3)cc12`, the IC50 is less than 1000 nM.
For `CCCCCNC(=O)[C@@H]1C[C@@]2(C)C[C@H]2N1C(=O)Cn1nc(C(C)=O)c2cc(-c3cnc(C)nc3)ccc21` the value was less than 1000 nM; for `CC(=O)c1nn(CC(=O)N2[C@H](C(=O)Nc3nc(Br)ccc3C)C[C@@]3(CC(O)CO)C[C@@H]23)c2cnc(-c3cnc(C)nc3)cc12` (some centres undefined), less than 1000 nM; for `CC(=O)c1nn(CC(=O)N2[C@H]3C[C@@]3(C)C[C@H]2C(=O)Nc2nc(Br)ccc2C)c2ccc(-c3cnc(C)nc3)cc12`, less than 1000 nM.
For `CC(=O)c1nn(CC(=O)N2[C@H](C(=O)NCc3ccccc3)C[C@@]3(C)C[C@@H]23)c2c(C)cc(-c3cnc(C)nc3)cc12` the value was less than 1000 nM.
The figure for `CC(=O)c1nn(CC(=O)N2[C@H]3C[C@@]3(CF)C[C@H]2C(=O)Nc2nc(Br)ccc2C)c2cnc(-c3cnc(C)nc3)cc12` is less than 1000 nM; for `CCCCNC(=O)[C@@H]1C[C@@]2(C)C[C@H]2N1C(=O)Cn1nc(C(C)=O)c2cc(-c3cnc(C)nc3)cc(C)c21` it is less than 1000 nM; for `CC(=O)c1nn(CC(=O)N2[C@@H](C(=O)Nc3nc(Br)ccc3C)C[C@]3(C)C[C@H]23)c2ccc(-c3cnc(C)nc3)cc12` it is greater than 10000 nM.
With `CC(=O)c1nn(CC(=O)N2[C@H](C(=O)Nc3nc(Br)ccc3C)C[C@@]3(CNC(=O)C4CCCC4(F)F)C[C@@H]23)c2ccc(-c3cnc(C)nc3)cc12` (some centres undefined), the IC50 was less than 1000 nM.
With `CC(=O)c1nn(CC(=O)N2[C@H](C(=O)Nc3nc(Br)ccc3C)C[C@@]3(CN4CC(C)(C)C4)C[C@@H]23)c2c(C)nc(-c3cnc(C)nc3)cc12`, the concentration for half-maximal inhibition (IC50) was less than 1000 nM.
For `CC(=O)c1nn(CC(=O)N2[C@H](C(=O)Nc3nc(Br)ccc3C)C[C@@]3(CF)C[C@@H]23)c2cnc(-c3cnc(C)nc3)cc12` the value was less than 1000 nM; for `CC(=O)c1nn(CC(=O)N2[C@H](C(=O)Nc3nc(Br)ccc3C)C[C@@]3(CN4CCCC4)C[C@@H]23)c2c(C)nc(-c3cnc(C)nc3)cc12`, less than 1000 nM; for `COCc1ccc(Br)nc1NC(=O)[C@@H]1C[C@@]2(CNC(C)=O)C[C@H]2N1C(=O)Cn1nc(C(C)=O)c2cc(-c3cnc(C)nc3)ccc21`, less than 1000 nM.
For `Cc1ncc(-c2ccc3c(c2)c(C(N)=O)nn3CC(=O)N2[C@H](C(=O)Nc3nc(Br)ccc3C)C[C@@]3(C)C[C@@H]23)cn1` the value was less than 1000 nM; for `Cc1ncc(-c2ccc3c(c2)c(C(=O)NC2CC2)nn3CC(=O)N2[C@H](C(=O)Nc3nc(Br)ccc3C)C[C@@]3(C)C[C@@H]23)cn1`, less than 1000 nM.
The figure for `CC(=O)c1nn(CC(=O)N2[C@H](C(=O)Nc3nc(Br)ccc3C)C[C@@]3(Cn4cc(C5CC5)nn4)C[C@@H]23)c2cnc(-c3cnc(C)nc3)cc12` is less than 1000 nM; for `COC[C@@]12C[C@@H](C(=O)Nc3nc(Br)ccc3C)N(C(=O)Cn3nc(C(C)=O)c4cc(-c5cnc(C)nc5)ncc43)[C@@H]1C2` it is less than 1000 nM; for `CC(=O)c1nn(CC(=O)N2[C@H](C(=O)NCc3ccccc3F)C[C@@]3(C)C[C@@H]23)c2c(C)cc(-c3cnc(C)nc3)cc12` it is less than 1000 nM.
`CC(=O)c1nn(CC(=O)N2[C@H](C(=O)NCc3cccnc3)C[C@@]3(C)C[C@@H]23)c2c(C)cc(-c3cnc(C)nc3)cc12`: the IC50 was less than 1000 nM.
For `CC(=O)c1nn(CC(=O)N2[C@H](C(=O)Nc3nc(Br)ccc3CN3CCc4ccccc4C3)C[C@@]3(C)C[C@@H]23)c2cnc(-c3cnc(C)nc3)cc12` the value was less than 1000 nM; for `CC(=O)C[C@@]12C[C@@H](C(=O)Nc3nc(Br)ccc3C)N(C(=O)Cn3nc(C(C)=O)c4cc(-c5cnc(C)nc5)ncc43)[C@@H]1C2`, less than 1000 nM.

The values above are taken from ChEMBL document CHEMBL5728630, “Aryl, heteroaryl, and heterocyclic pharmaceutical compounds for treatment of medical disorders” (2021).
